Assay results published in patent publication US8202887B2, “2-(substituted-amino)-benzothiazole sulfonamide HIV protease inhibitors” (Janssen R&D Ireland, priority 2006, dated 2012).

Experiments:
[1] = system: Beagle dogs; assay: Hypersensitivity testing: erythema and edema in dogs, single dose; type: in vivo; conditions: for induction of erythema and/or edema: single dose experiments in dogs, summary in words
Description: (§1) Studies were carried out to test for the occurrence of erythema and edema in dogs. The compound having structural formula (II) was orally administered to Beagle dogs in an appropriate formulation as a single-dose, dose-escalating study design. In order to achieve high systemic exposures, a so-called booster compound was co-administered (ritonavir, RTV). Blood samples were taken at regular time points following the dosing. Clinical signs were recorded at least once daily for the treatment period and follow up (for at least 24 hours). Symptoms were graded on a […], with 0 being absence of symptoms, 1 mild, 2, moderate, 3 severe, 4 very severe. Special attention was paid to the occurrence of erythema and edema.

[2] = system: beagle dog; assay: Oral 3 month dog toxicology study; type: in vivo
Description: In some cases, these symptoms started as maculate erythema and/or nodular swelling and progressed to diffuse/general erythema and swelling. Signs were predominantly visible in areas with thin/sparse fur including the ears, periorbital region and abdomen. The findings were transient, with maximal severity about one hour after dosing and disappearing or decreasing to lower severity by 4 hours post-administration.

[3] = system: beagle dog; assay: Single dose escalation/five day repeat dose toxicology study in beagle dog; type: in vivo
Description: In a single dose escalation/S day repeat dose dog toxicology study, beagle dogs were treated with compound II according to the current invention at dose levels from 40 up to 144 mg/kg day.

[4] = Plasma exposure (AUC) in single-dose, dose-escalating dog study; type: in vivo, Beagle dogs; conditions: beagle
Description: as §1, with “edema. The concentration of the compound having formula (II) in dog plasma was determined using a LC-MS/MS method. Raw data were used to calculate standard pharmacokinetic parameters (e.g. AUC) as a measure of systemic exposure. The systemic exposure for the compound having formula (II) was compared to the exposure of a reference compound having structural formula (III), in similar single-dose experiments in dogs, in the absence of a booster (ritonavir).” for “edema.”

[5] = system: Beagle dogs; assay: 28 day / 1-month toxicology study in beagle dogs; type: in vivo; conditions: for erythema and edema after oral administration: summary of toxicology studies up to 1 month in duration, beagle dog
Description: These findings occurred shortly after dosing, were transient in nature, maximal between approximately 1 to 2 hours after dosing, disappearing thereafter. There was a large interindividual variation in this response, with no dose-response relationship. Mechanistic studies to clarify the cause for erythema were not indicative of a histamine-based mechanism of action.

[6] = system: clinically isolated HIV strain C; assay: Cellular anti-viral assay in MT4-LTR-EGFP cells, mutant strain C; type: cell-based; conditions: Human immunodeficiency virus 1, 72 h, read-out: pEC50 virus strain C (converted)
Description: (§2) Because of the increasing emergence of drug resistant HIV strains, the present compounds were tested for their potency against clinically isolated HIV strains harboring several mutations. These mutations are associated with resistance to protease inhibitors and result in viruses that show various degrees of phenotypic cross-resistance to the currently commercially available drugs such as for instance saquinavir, ritonavir, nelfinavir, indinavir and amprenavir. The viral strains coded as A, B, C and D contain mutations as indicated below in Table 2.
(§3) The cellular assay was performed according to the following procedure. HIV- or mock-infected MT4-LTR-EGFP cells were incubated for three days in the presence of various concentrations of the compounds according to the invention. Upon infection, the viral tat protein activates the GFP reporter. At the end of the incubation period, the GFP signal was measured. In the virus control samples (in the absence of any inhibitor) the maximal fluorescent signal was obtained. The inhibitory activity of the compound was monitored on the virus-infected cells and was expressed as EC50. These values represent the amount of the compound required to protect 50% of the cells from virus infection. (Table 3).

[7] = system: clinically isolated HIV strain B; assay: Cellular anti-viral assay in MT4-LTR-EGFP cells, mutant strain B; type: cell-based; conditions: Human immunodeficiency virus 1, 72 h, read-out: pEC50 virus strain B (converted)
Description: as §2, §3

[8] = system: clinically isolated HIV strain D; assay: Cellular anti-viral assay in MT4-LTR-EGFP cells, mutant strain D; type: cell-based; conditions: Human immunodeficiency virus 1, 72 h, read-out: pEC50 virus strain D (converted)
Description: as §2, §3

[9] = system: clinically isolated HIV strain A; assay: Cellular anti-viral assay in MT4-LTR-EGFP cells, mutant strain A; type: cell-based; conditions: Human immunodeficiency virus 1, 72 h, read-out: pEC50 virus strain A (converted)
Description: as §2, §3

[10] = system: wild type laboratory HIV strain (WT IIIB-2-001); assay: Cellular anti-viral assay in MT4-LTR-EGFP cells, wild type strain; type: cell-based; conditions: Human immunodeficiency virus 1, IIIB, 72 h; MT4-LTR-EGFP cells, three days, GFP signal; read-out: pEC50 WT-IIIB-2-001 (converted)
Description: The compounds were tested in a cellular assay using the MT4-LTR-EGFP cells for anti-viral activity.
as §3, with “In the virus control samples (in the absence of any inhibitor) the maximal fluorescent signal was obtained.” left out, “infection.” for “infection. (Table 3).”

[11] = Pharmacokinetics of compound II and boosting effect of ritonavir in fed male beagle dogs; type: in vivo; conditions: for AUC(0-inf) / Cmax: male, beagle, dog, plasma, po
Description: Pharmacokinetics of Compound II and Boosting Effect of Ritonavir in Fed Male Beagle Dogs after Single Oral Administration of Compound II at 10 or 40 mg/kg.
The present study was performed to study the plasma pharmacokinetics of compound II in male beagle dogs after single oral administration doses of 10 and 40 mg/kg, and to evaluate the potential boosting effect of ritonavir, dosed at 10 mg/kg twice daily, on the bioavailability of compound II.
Beagle dogs (7-11 kg body weight) were dosed after feeding. Both compound II and ritonavir were given by gavage of an oral solution. All animals first received compound II alone, and after a washout of one week, the combination of ritonavir and compound II in the morning. Ritonavir dosing was repeated in the evening and on the next day's morning. Plasma was sampled to measure compound II and ritonavir concentrations until 32 hours after dosing of compound II.

[12] = 10 mg/kg, 10 mg/kg compound II single oral, with Ritonavir 10 mg/kg twice daily
[13] = 10 mg/kg, 10 mg/kg compound II single oral, without Ritonavir
[14] = 40 mg/kg compound II single oral, with Ritonavir 10 mg/kg twice daily
[15] = 40 mg/kg, 40 mg/kg compound II single oral, without Ritonavir

CC(C)CN(C[C@@H](O)[C@H](Cc1ccccc1)NC(=O)O[C@H]1CO[C@H]2OCC[C@H]21)S(=O)(=O)c1ccc2nc(NCCN3CCCC3)sc2c1 [Reference compound having formula (III)]
Erythema/edema ([1]; single dose 10 mg/kg, absence of booster): No | Erythema/edema ([1]; single dose 40 mg/kg, absence of booster): No | Erythema/edema ([1]; single dose 80 mg/kg, absence of booster): Yes | Erythema/edema ([1]; single dose 120 mg/kg, absence of booster): Yes | induction of erythema and/or edema [1]: did induce these clinical signs | erythema or edema ([2]; 10 mg/kg/day): No erythema or edema was observed | erythema ([2]; 40 mg/kg/day, after 5 weeks of treatment): one of four males dosed at 40 mg/kg/day exhibited general erythema | erythema of the skin and swelling ([2]; 120 mg/kg/day, majority of the animals, entire treatment period): slight to severe erythema of the skin, accompanied by swelling | time after dosing of maximal severity of erythema/swelling ([2]; 3 month study, transient findings): about one | erythema ([3]; high dose level 80 mg/kg/day, after five consecutive days of treatment): exhibited general erythema | AUC ([4]; oral, single dose 10 mg/kg, absence of booster, range): 47 to 238 ng·h/mL | AUC ([4]; oral, single dose 40 mg/kg, absence of booster, range): 3320 to 5090 ng·h/mL | AUC ([4]; oral, single dose 80 mg/kg, absence of booster, range): 7370 to 16000 ng·h/mL | AUC ([4]; oral, single dose 120 mg/kg, absence of booster, range): 10200 to 27500 ng·h/mL | redness of the skin (erythema) ([5]; 28 day study, all dose levels (40, 80, 120 mg/kg/day), most animals): slight to severe redness of the skin | onset of erythema symptoms ([5]; 28 day study, dose levels 80 and 120 mg/kg/day): present from the start of the study | onset of erythema symptoms ([5]; 28 day study, low dose level 40 mg/kg/day): third week | swelling (edema) accompanying erythema ([5]; 28 day study, head, flews, eyes and/or ears, most cases): accompanied by swelling (edema) | time after dosing of maximal erythema/edema findings ([5]; 28 day study, transient findings): 1 to 2 h | erythema and edema after oral administration [5]: produced erythema and edema

CC(C)CN(C[C@@H](O)[C@H](Cc1ccccc1)NC(=O)O[C@H]1CO[C@H]2OCC[C@H]21)S(=O)(=O)c1ccc2nc(NC3CCN(C4CCCC4)CC3)sc2c1 [Compound 7, (1-benzyl-3-{[2-(1-cyclopentyl-piperidin-4-ylamino)-benzothiazole-6-sulfonyl]-isobutyl-amino}-2-hydroxy-propyl)-carbamic acid hexahydro-furo[2,3-b]furan-3-yl ester]
EC50 [6]: 2880 nM | Erythema/edema ([1]; oral single dose 20 mg/kg, with ritonavir (RTV) coadministration): No | Erythema/edema ([1]; oral single dose 40 mg/kg, with ritonavir (RTV) coadministration): No | Erythema/edema ([1]; oral single dose 80 mg/kg, with ritonavir (RTV) coadministration): No | induction of erythema and/or edema [1]: did not induce erythema and/or edema | EC50 [7]: 20 nM | EC50 [8]: 13.5 nM | edema or erythema ([3]; dose levels from 40 up to 144 mg/kg day): No evidence of edema or erythema | AUC ([4]; oral single dose 20 mg/kg, with ritonavir (RTV) coadministration, mean of 4 animals): 7750 ng·h/mL | AUC ([4]; oral single dose 40 mg/kg, with ritonavir (RTV) coadministration, mean of 4 animals): 23000 ng·h/mL | AUC ([4]; oral single dose 80 mg/kg, with ritonavir (RTV) coadministration, mean of 4 animals): 23000 ng·h/mL | EC50 [9]: 11.7 nM | EC50 [10]: 13.2 nM | Erythema/edema ([5]; 1-month study, dose levels 5, 20 and 40 mg/kg/day): neither erythema nor edema was noted | erythema and edema after oral administration [5]: did not induce erythema and/or edema | Cmax Ratio (with/without Ritonavir) ([11]; 10 mg/kg compound II): 7.1 | Relative bioavailability Frel (AUC0-inf with vs without Ritonavir) ([11]; 10 mg/kg compound II): 1378% | Cmax Ratio (with/without Ritonavir) ([11]; 40 mg/kg compound II): 3.6 | Relative bioavailability Frel (AUC0-inf with vs without Ritonavir) ([11]; 40 mg/kg compound II): 1083% | increase of AUC in the presence of ritonavir ([11]; 10 and 40 mg/kg compound II): over 10 fold | increase of Cmax in the presence of ritonavir ([11]; 10 and 40 mg/kg compound II): 4 to 7 fold | AUC(0-inf) [11, 12]: 4370 ng·h/mL | Cmax [11, 12]: 879 ng/mL | AUC(0-inf) [11, 13]: 330 ng·h/mL | Cmax [11, 13]: 123 ng/mL | AUC(0-inf) [11, 14]: 23600 ng·h/mL | Cmax [11, 14]: 4220 ng/mL | AUC(0-inf) [11, 15]: 2290 ng·h/mL | Cmax [11, 15]: 1190 ng/mL | total plasma exposure (AUC) and peak plasma concentrations (Cmax) after co-administration with ritonavir ([11]; twice-daily dosing of 10 mg/kg ritonavir, in words): markedly increased
